Test results from ChEMBL document CHEMBL1151454, “Failures in clinical treatment of Staphylococcus aureus Infection with daptomycin are associated with alterations in surface charge, membrane phospholipid asymmetry, and drug binding” (Antimicrob Agents Chemother, 2008).
Converted amounts (≈) assume the structure as drawn. The source made the active and inactive calls. The rule behind the calls is not given here.

Experiments:
Staphylococcus aureus [1] = assay: Reduction of membrane permeabilization in daptomycin-nonsusceptible Staphylococcus aureus isolate 703 bloodstream form isolated from patient with endocarditis assessed as calcein retention at 1.5 ug/ml after 120 mins by fluorometric analysis; format: functional, organism-based
Staphylococcus aureus [2] = assay: Induction of autolysis in methicillin-susceptible Staphylococcus aureus isolate 616 bloodstream form isolated from patient 6 ug/ml within 4 to 24 hrs; format: functional, organism-based
Staphylococcus aureus [3] = assay: Antibacterial activity against daptomycin-nonsusceptible Staphylococcus aureus isolate 701 bloodstream form isolated from patient with endocarditis by Etest; format: functional
Staphylococcus aureus [4] = assay: Induction of cell membrane depolarization in daptomycin-nonsusceptible Staphylococcus aureus isolate 701 bloodstream form isolated from patient with endocarditis at 6 ug/ml after 60 mins by flow cytometry; format: functional, organism-based
Staphylococcus aureus [5] = assay: Antibacterial activity against daptomycin-transitional Staphylococcus aureus isolate 629 bloodstream form isolated from patient with endocarditis by Etest; format: functional
Staphylococcus aureus [6] = assay: Antibacterial activity against daptomycin-nonusceptible Staphylococcus aureus isolate 703 bloodstream form isolated from patient with endocarditis assessed as inhibition on heterogeneous subpopulation survival rate at 0.5 and 4 ug/ml after 48 hrs; format: functional, organism-based
Staphylococcus aureus [7] = assay: Induction of cell membrane depolarization in daptomycin-nonsusceptible Staphylococcus aureus isolate 703 bloodstream form isolated from patient with endocarditis at 0.75 ug/ml after 60 mins by flow cytometry; format: functional, organism-based
Staphylococcus aureus [8] = assay: Drug binding to daptomycin-nonsusceptible Staphylococcus aureus isolate 701 bloodstream form isolated from patient with endocarditis at 6 ug after 10 mins by radial diffusion assay; format: ADME, organism-based
Staphylococcus aureus [9] = assay: Antibacterial activity against daptomycin-nonsusceptible Staphylococcus aureus isolate 701 bloodstream form isolated from patient with endocarditis assessed as inhibition on heterogeneous subpopulation survival rate at 0.5 and 4 ug/ml after 48 hrs; format: functional, organism-based
Staphylococcus aureus [10] = assay: Drug binding to methicillin-susceptible Staphylococcus aureus isolate 616 bloodstream form isolated from patient with endocarditis at 6 ug after 10 mins by radial diffusion assay; format: ADME, organism-based; conditions: in vivo
Staphylococcus aureus [11] = assay: Induction of cell membrane depolarization in methicillin-susceptible Staphylococcus aureus isolate 616 bloodstream form isolated from patient with endocarditis at 6 ug/ml after 60 mins by flow cytometry; format: functional, organism-based
Staphylococcus aureus [12] = assay: Antibacterial activity against daptomycin-nonsusceptible Staphylococcus aureus isolate 703 bloodstream form isolated from patient with endocarditis by Etest; format: functional
Staphylococcus aureus [13] = assay: Induction of cell membrane depolarization in daptomycin-transitional Staphylococcus aureus isolate 629 bloodstream form isolated from patient with endocarditis at 40 ug/ml after 60 mins by flow cytometry; format: functional, organism-based
Staphylococcus aureus [14] = assay: microbe, parasite or virus in culture; conditions: 616
Description: Antibacterial activity against methicillin-susceptible Staphylococcus aureus isolate 616 bloodstream form isolated from patient with endocarditis by Etest

Staphylococcus aureus [15] = assay: Induction of cell membrane depolarization in daptomycin-nonsusceptible Staphylococcus aureus isolate 703 bloodstream form isolated from patient with endocarditis at 40 ug/ml after 60 mins by flow cytometry; format: functional, organism-based
Staphylococcus aureus [16] = assay: Induction of cell membrane depolarization in methicillin-susceptible Staphylococcus aureus isolate 616 bloodstream form isolated from patient with endocarditis at 0.75 ug/ml after 60 mins by flow cytometry; format: functional, organism-based
Staphylococcus aureus [17] = assay: Induction of cell membrane depolarization in daptomycin-nonsusceptible Staphylococcus aureus isolate 701 bloodstream form isolated from patient with endocarditis at 0.75 ug/ml after 60 mins by flow cytometry; format: functional, organism-based
Staphylococcus aureus [18] = assay: Reduction of membrane permeabilization in methicillin-susceptible Staphylococcus aureus isolate 616 bloodstream form isolated from patient with endocarditis assessed as calcein retention at 1.5 ug/ml after 120 mins by fluorometric analysis; format: functional, organism-based
Staphylococcus aureus [19] = assay: Induction of autolysis in daptomycin-nonsusceptible Staphylococcus aureus isolate 701 bloodstream form isolated from patient 6 ug/ml within 4 to 24 hrs; format: functional, organism-based
Staphylococcus aureus [20] = assay: Induction of autolysis in daptomycin-nonsusceptible Staphylococcus aureus isolate 703 bloodstream form isolated from patient 6 ug/ml within 4 to 24 hrs; format: functional, organism-based
Staphylococcus aureus [21] = assay: Induction of cell membrane depolarization in daptomycin-nonsusceptible Staphylococcus aureus isolate 701 bloodstream form isolated from patient with endocarditis at 40 ug/ml after 60 mins by flow cytometry; format: functional, organism-based
Staphylococcus aureus [22] = assay: Induction of cell membrane depolarization in methicillin-susceptible Staphylococcus aureus isolate 616 bloodstream form isolated from patient with endocarditis at 40 ug/ml after 60 mins by flow cytometry; format: functional, organism-based
Staphylococcus aureus [23] = assay: Antibacterial activity against methicillin-susceptible Staphylococcus aureus isolate 616 bloodstream form isolated from patient with endocarditis assessed as inhibition on heterogeneous subpopulation survival rate at 0.5 and 1 ug/ml after 48 hrs; format: functional, organism-based
Staphylococcus aureus [24] = assay: Induction of cell membrane depolarization in daptomycin-transitional Staphylococcus aureus isolate 629 bloodstream form isolated from patient with endocarditis at 0.75 ug/ml after 60 mins by flow cytometry; format: functional, organism-based
Staphylococcus aureus [25] = assay: Reduction of membrane permeabilization in daptomycin-transitional Staphylococcus aureus isolate 629 bloodstream form isolated from patient with endocarditis assessed as calcein retention at 1.5 ug/ml after 120 mins by fluorometric analysis; format: functional, organism-based
Staphylococcus aureus [26] = assay: Reduction of membrane permeabilization in daptomycin-nonsusceptible Staphylococcus aureus isolate 701 bloodstream form isolated from patient with endocarditis assessed as calcein retention at 1.5 ug/ml after 120 mins by fluorometric analysis; format: functional, organism-based
Staphylococcus aureus [27] = assay: Drug binding to daptomycin-nonsusceptible Staphylococcus aureus isolate 703 bloodstream form isolated from patient with endocarditis at 6 ug after 10 mins by radial diffusion assay; format: ADME, organism-based
Staphylococcus aureus [28] = assay: Antibacterial activity against Staphylococcus aureus SA113 by Etset; format: functional
Staphylococcus aureus [29] = assay: Induction of cell membrane depolarization in daptomycin-nonsusceptible Staphylococcus aureus isolate 703 bloodstream form isolated from patient with endocarditis at 6 ug/ml after 60 mins by flow cytometry; format: functional, organism-based
Staphylococcus aureus [30] = assay: Antibacterial activity against Staphylococcus aureus SA113 harboring null mutation in mprF gene by Etset; format: functional
Staphylococcus aureus [31] = assay: Antibacterial activity against daptomycin-transitional Staphylococcus aureus isolate 629 bloodstream form isolated from patient with endocarditis assessed as inhibition on heterogeneous subpopulation survival rate at 0.5 and 1 ug/ml after 48 hrs; format: functional, organism-based
Staphylococcus aureus [32] = assay: Induction of cell membrane depolarization in daptomycin-transitional Staphylococcus aureus isolate 629 bloodstream form isolated from patient with endocarditis at 6 ug/ml after 60 mins by flow cytometry; format: functional, organism-based
Staphylococcus aureus [33] = assay: Drug binding to daptomycin-transitional Staphylococcus aureus isolate 629 bloodstream form isolated from patient with endocarditis at 6 ug after 10 mins by radial diffusion assay; format: ADME, organism-based
Staphylococcus aureus [34] = assay: Antibacterial activity against daptomycin-transitional Staphylococcus aureus isolate 629 bloodstream form isolated from patient with endocarditis assessed as inhibition on heterogeneous subpopulation survival rate at 0.25 and 1 ug/ml after 48 hrs; format: functional, organism-based
Staphylococcus aureus [35] = assay: Induction of autolysis in methicillin-susceptible Staphylococcus aureus isolate 616 bloodstream form isolated from patient 50 ug/ml within 24 hrs; format: functional, organism-based
Staphylococcus aureus [36] = assay: Induction of autolysis in daptomycin-nonsusceptible Staphylococcus aureus isolate 701 bloodstream form isolated from patient 50 ug/ml within 24 hrs; format: functional, organism-based
Staphylococcus aureus [37] = assay: Antibacterial activity against daptomycin-nonsusceptible Staphylococcus aureus isolate 701 bloodstream form isolated from patient with endocarditis assessed as inhibition on heterogeneous subpopulation survival rate at 0.25 and 1 ug/ml after 48 hrs; format: functional, organism-based
Staphylococcus aureus [38] = assay: Induction of autolysis in daptomycin-transitional Staphylococcus aureus isolate 629 bloodstream form isolated from patient 50 ug/ml within 24 hrs; format: functional, organism-based
Staphylococcus aureus [39] = assay: Antibacterial activity against daptomycin-nonsusceptible Staphylococcus aureus isolate 703 bloodstream form isolated from patient with endocarditis assessed as inhibition on heterogeneous subpopulation survival rate at 0.25 and 1 ug/ml after 48 hrs; format: functional, organism-based
Staphylococcus aureus [40] = assay: Induction of autolysis in daptomycin-nonsusceptible Staphylococcus aureus isolate 703 bloodstream form isolated from patient 50 ug/ml within 24 hrs; format: functional, organism-based
Staphylococcus aureus [41] = assay: Antibacterial activity against methicillin-susceptible Staphylococcus aureus isolate 616 bloodstream form isolated from patient with endocarditis assessed as inhibition on heterogeneous subpopulation survival rate at 0.25 and 1 ug/ml after 48 hrs; format: functional, organism-based
Staphylococcus aureus [42] = assay: Induction of autolysis in daptomycin-nonsusceptible Staphylococcus aureus isolate 703 bloodstream form isolated from patient 50 ug/ml measured at 18 hrs; format: functional, organism-based

CCCCCCCCCC(=O)N[C@@H](Cc1c[nH]c2ccccc12)C(=O)N[C@H](CC(N)=O)C(=O)N[C@@H](CC(=O)O)C(=O)N[C@@H]1C(=O)NCC(=O)N[C@@H](CCCN)C(=O)N[C@@H](CC(=O)O)C(=O)N[C@H](C)C(=O)N[C@@H](CC(=O)O)C(=O)NCC(=O)N[C@H](CO)C(=O)N[C@@H]([C@H](C)CC(=O)O)C(=O)N[C@@H](CC(=O)c2ccccc2N)C(=O)O[C@@H]1C
Activity (Staphylococcus aureus [1]): Active | Activity (Staphylococcus aureus [2]): Active | MIC (Staphylococcus aureus [3]): 2 mg/L (≈ 1.23 µM) | Activity (Staphylococcus aureus [4]): inactive | MIC (Staphylococcus aureus [5]): 0.75 mg/L (≈ 0.463 µM) | Activity (Staphylococcus aureus [6]): inactive | Activity (Staphylococcus aureus [7]): inactive | Drug uptake (Staphylococcus aureus [8]): 2.32 µg/mL | Activity (Staphylococcus aureus [9]): inactive | Drug uptake (Staphylococcus aureus [10]): 5.4 µg/mL | Activity (Staphylococcus aureus [11]): Active | MIC (Staphylococcus aureus [12]): 2 mg/L (≈ 1.23 µM) | Activity (Staphylococcus aureus [13]): inactive | MIC (Staphylococcus aureus [14]): 0.5 mg/L (≈ 0.309 µM) | Activity (Staphylococcus aureus [15]): inactive | Activity (Staphylococcus aureus [16]): Active | Activity (Staphylococcus aureus [17]): inactive | Activity (Staphylococcus aureus [18]): inactive | Activity (Staphylococcus aureus [19]): inactive | Activity (Staphylococcus aureus [20]): inactive | Activity (Staphylococcus aureus [21]): inactive | Activity (Staphylococcus aureus [22]): inactive | Activity (Staphylococcus aureus [23]): inactive | Activity (Staphylococcus aureus [24]): inactive | Activity (Staphylococcus aureus [25]): Active | Activity (Staphylococcus aureus [26]): Active | Drug uptake (Staphylococcus aureus [27]): 2.24 µg/mL | MIC (Staphylococcus aureus [28]): 0.38 mg/L (≈ 0.234 µM) | Activity (Staphylococcus aureus [29]): inactive | MIC (Staphylococcus aureus [30]): 0.094 mg/L (≈ 0.058 µM) | Activity (Staphylococcus aureus [31]): inactive | Activity (Staphylococcus aureus [32]): inactive | Drug uptake (Staphylococcus aureus [33]): 1.61 µg/mL

CN[C@H](CC(C)C)C(=O)N[C@H]1C(=O)N[C@@H](CC(N)=O)C(=O)N[C@H]2C(=O)N[C@H]3C(=O)N[C@H](C(=O)N[C@H](C(=O)O)c4cc(O)cc(O)c4-c4cc3ccc4O)[C@H](O)c3ccc(c(Cl)c3)Oc3cc2cc(c3O[C@@H]2O[C@H](CO)[C@@H](O)[C@H](O)[C@H]2O[C@H]2C[C@](C)(N)[C@H](O)[C@H](C)O2)Oc2ccc(cc2Cl)[C@H]1O
Activity (Staphylococcus aureus [34]): inactive | Activity (Staphylococcus aureus [35]): Active | Activity (Staphylococcus aureus [36]): inactive | Activity (Staphylococcus aureus [37]): inactive | Activity (Staphylococcus aureus [38]): inactive | Activity (Staphylococcus aureus [39]): inactive | Activity (Staphylococcus aureus [40]): inactive | Activity (Staphylococcus aureus [41]): inactive | Activity (Staphylococcus aureus [42]): inactive
